From patent US7923228B2, “Methods and compositions for growth of hydrocarbons in Botryococcus sp” (priority 2005, dated 2011)

Test system: Botryococcus sp. colonies
Experiment: Flotation (buoyancy) of sunken colonies as visual readout of hydrocarbon content
Type: cell-based
From the text: Previous investigations (Ohmori, et al. 1984; and Wolf, et al, 1985) verified that colonies containing greater than 20% of dry weight as botryococcenoid hydrocarbons were buoyant and that colonies containing less than 5% hydrocarbons remained sunken at the bottom of the culture vessel, providing a visual method for selecting cells with commercial-grade hydrocarbons. […] Colonies in hydrocarbon-enhancement were placed in the dark without supplemental carbon dioxide gas to eliminate artifacts of flotation from bubbles. Environmental conditions were 150 μE/m^2/sec PAR to 1700 μE/m^2/sec PAR at 25-37° Centigrade. Nutrient chemicals were reagent grade in all laboratory-scale experiments. In field-scale tests, fertilizer grade chemical nutrients were provided. In order to minimize or eliminate ammonia, nitrates were optionally kiln dried prior to admixture. Supplementation with 0.1% to 100% carbon dioxide gas or carbonate (e.g., 10 mg/ml sodium bicarbonate or potassium bicarbonate) increased hydrocarbon synthesis substantially, especially, when under the highest light intensities with soluble elements of the present invention. […]

Substance: phosphates
- total phosphate concentration that stimulated the rise of colonies to the surface (subtractive matrix analysis, most rapid in presence of soluble Mg, Mn, Fe, Zn+2): greater than 80 mM
- state of colonies after long exposure (two weeks or more in 300 mM phosphate): remained floating, but cleared to amber
